Source: patent US8653242B2, “Therapeutic antibodies against flagellated Pseudomonas aeruginosa” (priority 2010, dated 2014)
In brackets after ≈: the same amount, converted by molar mass. Read-outs that look alike come from different tables or passages of the source.

B1: LST-007: human IgM monoclonal antibody of U.S. Pat. No. 4,834,976, specific to P. aeruginosa flagellin type B (antibody, V domains shown)
VH: MDWTWRVFFLLAVAPGAHSQVRLVQSGTEVKKPGASVRVSCKASGYTFSNYYMYWVRQAPGQGLEWMAMINPSGGSTRYAQKFQGRVTMTRDTSTSTVYMELSSLRSEDTAVYYCARADSGSYFGYWGQGTLVTVSS
VL: MRVPAQLLGLLLLWLPGARCDIQLTQSPSFLSASVGDRVPITCRASQGISTHLAWYQQKPGKAPKLLIYAASTLQSGVPSRFSGSGSGTEFTLTISSLQPEDSATYYCQQLKSYPLTFGGGTKVEIKR
B2: LST-002: mouse monoclonal antibody of U.S. Pat. No. 4,834,976, specific to P. aeruginosa flagellin type B (antibody, V domains shown)
VH: EVMLVESGGGLVKPGGSLKLSCAASGFTFSTFTMSWVRQTPEKRLECVATINGGGGNTYYPDSVKGRFTISRDNAKNNLYLQMSSLRSEDTAFYFCSRLYGIYAMDYWGQGTSVTVSS
VL: MKSHTQVFVYMLLWLSGVEGDIVMTQSHIFMSTSVGDRVSITCKASQDVGSAVAWYQQKPGQSPKVLIYWTSTRHTGVPDRFAGSGSGTEFTLTISNVQSEDLADYFCQQYSSYPLTFGAGTKLELKR

Columns and labels:
[1] = system: Ka02 multi-drug resistant P. Aeruginosa strain; assay: Antibiogram of Ka02 (Vitek MIC); assay type: cell-based; parameters: MIC site #2: unit not given here; details: for Vitek (sensitive/resistant call): calls of the two sites; for MIC: Pseudomonas aeruginosa; on Final (sensitive/resistant call): key: S = antibiotic sensitive; R = antibiotic resistance
Ka02 (MDR P. aeruginosa) = assay: Mouse model of pneumonia driven by Ka02; assay type: in vivo, C57 Black mice; details: for Animal survival at day 3: Ka02 lung infection, treatment from 1 hr post-infection; for Animal survival at day 3 / survivors at day 3: unchanged at day 9; for survivors at day 3: survivors/animals in group
Experimental: Sixty-one (61) male Adult C57 Black mice (25-30 g, Harlan Nossan, Milan, Italy) were housed in a controlled environment in cages with filter tops in specific pathogen-free conditions. They were briefly anesthetized with inhaled sevorane (Abbot Laboratories) in an oxygenated chamber and placed in a supine position with their heads elevated approximately 30°. Ka02 bacterial inoculums (10^6 cfu's in 50 μl of lactated Ringer's solution) were instilled slowly into the left lung of each animal using a gavage needle.
Mice were randomly divided into 3 experimental treatment groups as follows:
a) Saline-Treated (n=20): saline administered i.v. 1 hr after infection followed by one further i.p. administration at 5 hr post-infection; b) LST-002-Treated (n=21): LST-002 given i.v. 1 hr after infection at a dose of 20 mg/kg followed by one further i.p. administration at 5 hr post-infection at a dose of 15 mg/kg; c) Positive control-Imipenem-Treated (n=20): “Tienam” (Merck, Sharpe and Dohme)] (active ingredient, imipenem, a carbapenem antibiotic) given i.p. 1 hr after infection at a dose of 25 mg/kg followed by further i.p. administrations at 25 mg/kg at time points of 5 hr, 24 hr, 29 hr, 48 hr and 53 hr following infection.
Survival was monitored for all groups every 12 hrs until day 9 post-infection and data depicted in Kaplan-Meier curves (FIG. 18). […] Survival at day 9 was unchanged from survival data observed at day 3, i.e. LST-002 was 240% more efficacious in increasing survival in mice with pneumonia than a currently accepted treatment protocol and increased survival by 700% as compared with untreated mice.

[2] = system: P. Aeruginosa strains harboring flagellin type B (Pa01, Ka01, Ka02, Ka03, Ka04, 25619, NCTC 10662); assay: Whole-bacteria binding ELISA, flagellin type B strains; details: LST-007 supernatant, LST-008 0.5 μg/ml
Experimental: P. aeruginosa laboratory strains PAK (flagellin type A) and Pa01 (flagellin type B) were grown overnight, diluted to an OD of 0.3 and washed with PBS. Fifty μl bacteria were then plated onto ELISA plates pre-coated with 50 μl poly-L-lysine (1 μg/ml in PBS) which were blocked with PBS-10% fetal calf serum (FCS). Following overnight incubation with bacteria at 4° C., plates were washed with 0.9% saline-0.05% Tween-20 and incubated with 1:2 dilutions of LST-001, LST-002, LST-007 supernatant or purified LST-003 (˜2 μg/ml) for 2 hrs at room temperature. Following washing, secondary goat anti-mouse (LST-001, LST-002) or goat anti-human detecting antibodies (LST-003, LST-007) were added and coloration generated following the addition of TMB substrate and plates read for absorbance (405 nm) following addition of 10% H2SO4.

[3] = system: P. Aeruginosa flagellin type A strain 27853; details: ELISA, LST-007 supernatant, LST-008 0.5 μg/ml
[4] = system: MDR P. aeruginosa strain Ka02; assay: "Sandwich" motility assay, Ka02; assay type: cell-based; details: LST-002 0.3-80 μg/ml, even at very low concentrations
Experimental: Using an alternative in-vitro motility technology, the effects of LST-002 on motility of a MDR P. aeruginosa (PA) strain (Ka02) was performed. In 10 cm plastic culture dishes, a 6 ml underlayer of 0.6% agar in LB was poured and allowed to solidify. During this period, 6 ml of LB was aliquoted into separate tubes to which LST-002 was added at final concentrations 80, 20, 5, 1.25, 0.3 and 0 μg/ml. Thereafter, 10 μA of bacterial culture (containing ˜20-100 cfu) was added followed by 6 mls of 0.6% agar in LB. This ˜12 ml solution was poured onto the solidified agar under-layer. Following solidification, a final upper layer comprising of 6 mls 0.6% agar in LB was added. Plates were transferred to an incubator at 37° C. for 18-22 hr to allow bacterial growth and swarming (i.e. motility) and the diameter of the bacterial colonies measured.

laboratory strain Pa01 = assay: "Sandwich" motility assay, Pa01; assay type: cell-based, P. aeruginosa; details: LST-002 0.3-80 μg/ml, even at very low concentrations
MDR PA strain Ka02 = assay: Neutropenic mouse thigh muscle infection model; assay type: in vivo, CD-1 mice
Experimental: Female CD-1 mice weighing 23-27 g (3-5 weeks in age) were rendered neutropenic by split i.p. administration of cyclophosphamide at doses of 150 mg/kg and 100 mg/kg on days 0 and +3. On day 4, 50 μl of freshly-grown Ka02 (2×10^7 cfu's per ml) was injected at a depth of 5 mm into the right thigh muscle (“ipsilateral”) whereas an equivalent volume of saline was injected into the left thigh muscle (“contralateral”). Over an ensuing 3 day period (days 5-7, i.e. 24, 48 and 72 hr following Ka02 administration), the surface areas of the infected thigh muscle lesions were measured with calipers in both ipsilateral and contralateral muscles. Ratios of surface areas of infection lesions of ipsilateral muscles divided by contralateral muscle lesions were calculated with ratios >1 indicative of Ka02. This calculation is called the Ratio-Infection Index (RII). In some mice, LST-002 was administered i.v. at 20 mg/kg, 60 min after administration of Ka02. Further dosing of LST-002 (10 mg/kg) was given i.p. at time points+5 hr, +24 hr and +48 hr after infection.

[5] = single i.v. injection at 10 mg/kg; preliminary
[6] = read-out: MIC site #1, heading: MIC site #1, Ka02, Vitek, testing site #1
[7] = read-out: MIC site #2, heading: MIC site #2, Ka02, Vitek, testing site #2
[8] = ipsilateral/contralateral lesion area, 20 mg/kg i.v. +60 min, 10 mg/kg i.p. +5, +24, +48 hr

Molecule | Final (sensitive/resistant call) ([1]; Ka02) | Vitek (sensitive/resistant call) ([1]; Ka02) | further results
NCC[C@H](O)C(=O)N[C@@H]1C[C@H](N)[C@@H](O[C@H]2O[C@H](CN)[C@@H](O)[C@H](O)[C@H]2O)[C@H](O)[C@H]1O[C@H]1O[C@H](CO)[C@@H](O)[C@H](N)[C@H]1O [Amikacin] | S | S/S | –
C[C@H]1[C@H](NC(=O)/C(=N\OC(C)(C)C(=O)O)c2csc(N)n2)C(=O)N1S(=O)(=O)O [Aztreonam] | R | R | –
CO/N=C(\C(=O)N[C@@H]1C(=O)N2C(C(=O)[O-])=C(C[N+]3(C)CCCC3)CS[C@H]12)c1csc(N)n1 [Cefepime] | R | R/R | –
CO/N=C(\C(=O)N[C@@H]1C(=O)N2C(C(=O)O)=C(COC(C)=O)CS[C@H]12)c1csc(N)n1 [Cefotaxime] | R | R/R | –
CC(C)(O/N=C(\C(=O)N[C@@H]1C(=O)N2C(C(=O)[O-])=C(C[n+]3ccccc3)CS[C@H]12)c1csc(N)n1)C(=O)O [Ceftazidime] | S-R | S/R | MIC [1, 6]: 8 µg/mL (≈ 14.6 µM)
O=C(N[C@H](CO)[C@H](O)c1ccc([N+](=O)[O-])cc1)C(Cl)Cl [Chloramphenicol] | R | R | –
O=C(O)c1cn(C2CC2)c2cc(N3CCNCC3)c(F)cc2c1=O [Ciprofloxacin] | R | R/R | MIC [1, 6]: 4 µg/mL (≈ 12.1 µM); MIC [1, 7]: ≥ 4 µg/mL
C[C@@H](O)[C@H]1C(=O)N2C(C(=O)O)=C(SCCN=CN)C[C@H]12 [Imipenem] | R | R | Animal survival at day 3 (Ka02 (MDR P. aeruginosa)): 30%; survivors at day 3 (Ka02 (MDR P. aeruginosa)): 6/20
C[C@H]1COc2c(N3CCN(C)CC3)c(F)cc3c(=O)c(C(=O)O)cn1c23 [Levofloxacin] | R | R | MIC [1, 7]: ≥ 8 µg/mL
C[C@@H](O)[C@H]1C(=O)N2C(C(=O)O)=C(S[C@@H]3CN[C@H](C(=O)N(C)C)C3)[C@H](C)[C@H]12 [Meropenem] | R | R/R | –
CN(C)c1ccc(O)c2c1C[C@H]1C[C@H]3[C@H](N(C)C)C(O)=C(C(N)=O)C(=O)[C@@]3(O)C(O)=C1C2=O [Minocycline] | R | – | –
CCN1CCN(C(=O)N[C@@H](C(=O)N[C@@H]2C(=O)N3[C@@H]2SC(C)(C)[C@@H]3C(=O)O)c2ccccc2)C(=O)C1=O [Piperacillin] | R | R | –
CN(C)c1cc(NC(=O)CNC(C)(C)C)c(O)c2c1C[C@H]1C[C@H]3[C@H](N(C)C)C(O)=C(C(N)=O)C(=O)[C@@]3(O)C(O)=C1C2=O [Tigecycline] | R | R | MIC ([1]; read-out: MIC site #2): ≥ 8 µg/mL
NC[C@H]1O[C@H](O[C@H]2[C@H](O)[C@@H](O[C@H]3O[C@H](CO)[C@@H](O)[C@H](N)[C@H]3O)[C@H](N)C[C@@H]2N)[C@H](N)C[C@@H]1O [Tobramycin] | R | R/I | MIC [1, 7]: 8 µg/mL (≈ 17.1 µM)
Amoxicillin/Calvulanic acid | R | R | MIC site #2 ([1]; Ka02, Vitek, testing site #2): 32
Ampicillin/Sulbactam | R | R/R | –
Colistin | S | S | MIC site #2 ([1]; Ka02, Vitek, testing site #2): 2
Gentamicin | – | R/S | MIC site #2 ([1]; Ka02, Vitek, testing site #2): 4
Piperacillin/Tazobactam | R | R/R | –
Ticracillin/CA | R | R | –
Trimethoprim-Sulfamethoxazole | R | R/R | –
B1 | – | – | binding to whole bacteria harboring flagellin type B [2]: specifically binds to all seven P. Aeruginosa bacteria strains tested; binding to whole bacteria harboring flagellin type A [3]: not flagellin type A
B2 | – | – | size of bacterial colonies (motility) [4]: significant reduction in the size of bacterial colonies; size of bacterial colonies (motility) (laboratory strain Pa01): significant reduction in the size of bacterial colonies; Animal survival at day 3 (Ka02 (MDR P. aeruginosa)): 71.4%; increased survival as compared with untreated mice (Ka02 (MDR P. aeruginosa); day 3 / day 9 survival): 700%; more efficacious in increasing survival than currently accepted treatment protocol (imipenem) (Ka02 (MDR P. aeruginosa); day 3 / day 9 survival): 240%; survivors at day 3 (Ka02 (MDR P. aeruginosa)): 15/21; Ratio-Infection Index (RII) day 5 (MDR PA strain Ka02; [8]): 1.09; Ratio-Infection Index (RII) day 7 (MDR PA strain Ka02; [8]): 0.96; infection lesions in thigh muscle infected with Ka02 (MDR PA strain Ka02; neutropenic mice): totally prevented infection lesions; early plasma concentration [5]: ~200 µg/mL
